Tested on: LATS2-pS83 in U251 cells
Experiment: Immunofluorescence, LATS2-pS83 spindle pole signal intensity, U251
Assay type: cell-based, Homo sapiens
Conditions: for centrosomal LATS2-pS83 signal: U251, siRNA 48 h or Aurora-A inhibitor 30 min (250 nM), immunofluorescence
Experimental: As noted in the figures, the following drugs were incubated with cells for 30 min at 37 °C: Aurora-B-i ZM447439 2 µM [10 mM], PLK1-I BI2536 1 µM [10 mM] and Aurora-A-i MLN8237 [5 mM] was used at 250 and 500 nM in U251 and RPE1 cells, respectively. Drugs were resuspended in DMSO to the stock concentrations indicated in square brackets. BI2536 (HY-50698), MLN8237 (HY-10971) and ZM447439 (HY-10128) were all purchased from MedChemExpress. For western blotting, a 20-min pre-treatment with proteasome inhibitor (20 µM MG-132, MerckMillipore, 47490 [20 mM]) was required prior to the addition of DMSO control or kinase inhibitors. This prevented mitotic exit as a consequence of checkpoint override following Aurora-A and Aurora-B inhibitor addition.
siRNA depletion was carried out by reverse transfection using oligofectamine (Thermo Scientific, 12252011) and lipofectamine RNAiMax (Thermo Scientific, 13778075), according to the manufacturer’s instructions, for U251 and RPE1 cells, respectively. For immunofluorescence, 1 × 10^5 cells were seeded in six-well plates and simultaneously transfected with 60 pmol siRNA duplex and 3 µl transfection reagent diluted in 200 µl Opti-MEM serum-free medium. Growth medium was added to a final volume of 2 ml. For western blotting, 1 × 10^6 cells were seeded in 10 cm dishes and transfected with 300 pmol siRNA duplex and 15 µl transfection reagent diluted in 1000 µl Opti-MEM. Growth medium was added to a final volume of 10 ml. Cells were incubated with siRNA for 48 h prior to fixation or harvesting. As a negative control (siControl) Silencer select negative control No.1 siRNA was transfected as above. For TACC3 depletion, where two siRNA duplexes were used, 40 pmol of each was transfected per well.
For siRNA depletion, 1 × 10^5 cells were seeded in six-well plates and transfected as described above for 48 h prior to fixation. For all other experiments, 2.5 × 10^5 cells were seeded in six-well plates and grown for 24 h before fixation. All cells were grown on 12 mm diameter glass coverslips (VWR, 631–1577). Cells in Fig. EV4A were fixed using 4% (wt/v) paraformaldehyde (PFA) in PBS for 12 min, followed by 10 min quenching in 50 mM NH4Cl in PBS and 5 min of permeabilization with 0.2% (v/v) Triton X-100 in PBS, all at room temperature. For centriole staining in Fig. EV4E, cells were fixed in pre-chilled methanol for 10 min at −20 °C, incubated in PBS for 10 min and then 5 min in 0.5% Triton-X-100, 0.5% Tween, 0.05% SDS in PBS (v/v). To observe centromere and kinetochore staining in Fig. 7C and Appendix Fig. S8A, cells were fixed with PTEMF buffer (20 mM PIPES pH 6.8, 0.2% (v/v) Triton X-100, 10 mM EGTA, 1 mM MgCl2, 4% PFA (wt/v) in PBS) for 12 min at room temperature. […]

Compound	centrosomal LATS2-pS83 signal	reduction of p-LATS2 (pS83) intensity (U251, Aurora-A inhibition 30 min, authors' response to referees)
5′-CGGUAGUGAUAAAAGCUCAtt-3′ [siTPX2]	reducing LATS2 phosphorylation	
COc1cc(Nc2ncc3c(n2)-c2ccc(Cl)cc2C(c2c(F)cccc2OC)=NC3)ccc1C(=O)O [Alisertib]	obliterated	> 80%
5′-CAAACAACUUGGAAAUCGAtt-3′ [siCEP192]	reducing LATS2 phosphorylation	
